Assay results: paper PMC10648937, “Drug distribution and efficacy of the DprE1 inhibitor BTZ-043 in the C3HeB/FeJ mouse tuberculosis model” (Antimicrobial Agents and Chemotherapy, 2023)
Several values for one entry are separate records, joined by “and”; a condition that tells them apart may be missing. Equal values may be shown once. Read-outs that look alike come from different tables or passages of the source.

Key:
[1] = test system: Mtb Erdman; assay: Broth microdilution MIC (Alamar Blue endpoint), with and without 4% huSA (serum-shift assay)
[2] = test system: Mtb Erdman; assay: Semi-quantitative MBC (sqMBC) assay; format: cell-based, Mycobacterium tuberculosis; conditions: M. tuberculosis Erdman; for sqMBC: 10 d incubation, 99% (2-log10) CFU reduction of inoculum; for sqMBC + huSA: with 4% huSA
[3] = test system: non-replicating Mtb in rabbit caseum; set-up: method as in PMID 34370580; conditions: similarly reported previously; cited from earlier work
[4] = test system: Mtb; set-up: method as in PMID 34370580; conditions: C3HeB/FeJ mice, 8 weeks (5 of 7 days per week), 100 and 200 mg/kg BID; cited from earlier work
[5] = test system: intracellular mycobacteria in macrophages; set-up: method as in PMID 19299584; conditions: cited from earlier work
[6] = test system: non-growing streptomycin-dependent Mtb strain 18b; set-up: method as in PMID 20679505; conditions: cited from earlier work
[7] = human; cited from earlier work
[8] = test system: Mtb Erdman; assay: Efficacy in spleens of Mtb Erdman-infected C3HeB/FeJ mice (CFU, kill rates); format: in vivo, Mycobacterium tuberculosis; conditions: for kill rate k[0-28] (SE), spleens: day 0 to 28; for kill rate k[0-56] (SE), spleens: day 0 to 56; for kill rate k[28-56] (SE), spleens: day 28 to 56
[9] = test system: Mtb Erdman; assay: Efficacy in lungs of Mtb Erdman-infected C3HeB/FeJ mice (CFU, kill rates); format: in vivo, Mycobacterium tuberculosis; conditions: for kill rate k[0-28] (SE), lungs, Type I (TI) subset / kill rate k[0-56] (SE), lungs, Type I (TI) subset / kill rate k[28-56] (SE), lungs, Type I (TI) subset: TI lesions; for kill rate k[0-28] (SE), lungs, Type III (TIII) subset / kill rate k[0-56] (SE), lungs, Type III (TIII) subset / kill rate k[28-56] (SE), lungs, Type III (TIII) subset: TIII lesions; for kill rate k[0-28] (SE), lungs: day 0 to 28; for kill rate k[0-56] (SE), lungs: day 0 to 56; for kill rate k[28-56] (SE), lungs: day 28 to 56
[10] = Plasma and lesion drug levels by LCM-LC/MS-MS in C3HeB/FeJ mice; conditions: 100 mg/kg
[11] = test system: Mtb Erdman; assay: In vitro kill kinetics under replicating conditions; format: cell-based, Mycobacterium tuberculosis; conditions: 8× and 20× MIC, CFU/mL over 14 days
[12] = C3HeB/FeJ, mouse, in vivo, 1 h
[13] = test system: Mtb Erdman-infected C3HeB/FeJ mice; assay: Pulmonary histopathology (pathologist scores and LIRA) in C3HeB/FeJ mice; format: in vivo, mouse
[14] = test system: non-replicating Mtb in rabbit caseum; assay: Explanted rabbit caseum MBC assay; format: cell-based, Mycobacterium tuberculosis; conditions: test concentrations up to 512 µM, 7 days
[15] = Mycobacterium tuberculosis, ERDMAN
[16] = Mycobacterium tuberculosis, ERDMAN, read-out: MIC + huSA
[17] = 50 mg/kg QD, 8 weeks of treatment
[18] = 200 mg/kg QD, 8 weeks of treatment
[19] = 200 mg/kg QD, 8 weeks, group average
[20] = 200 mg/kg QD, 8 weeks, mice Mx I to Mx L

Question: For `CC(=O)NC[C@H]1CN(c2ccc(N3CCOCC3)c(F)c2)C(=O)O1` [linezolid], which MIC [1, 15] is on record?
Answer: Its MIC is 1 µg/mL.

Question: And the MIC [1, 16]?
Answer: The MIC was 1 µg/mL.

Question: And the sqMBC [2]?
Answer: The sqMBC was over 8 µg/mL.

Question: For `COc1ncnc(Cn2cc(C(=O)NCCO)c3ncc(C)cc32)c1C` [TBA-7371], which “activity against non-replicating Mtb in rabbit caseum MBC assay” value [3] is on record?
Answer: Its value is “lacked appreciable activity”.

Question: And the “average lung CFU reduction compared to untreated controls” value [4]?
Answer: The value was 1.5 log10.

Question: And the MIC [1, 15]?
Answer: Its MIC is 0.5 µg/mL.

Question: And the MIC [1, 16]?
Answer: Its MIC is 1 µg/mL.

Question: What about the sqMBC [2] of the same compound?
Answer: The sqMBC was 1 µg/mL.

Question: And the “sqMBC + huSA” value [2]?
Answer: Its value is 1 µg/mL.

Question: What does the source list for `C[C@H]1COC2(CCN(c3nc(=O)c4cc(C(F)(F)F)cc([N+](=O)[O-])c4s3)CC2)O1` [BTZ-043]?
Answer: deduced MIC against intracellular mycobacteria in macrophages [5]: < 10 ng/mL; activity against non-growing Mtb strain 18b following depletion of streptomycin [6]: limited activity; plasma protein binding [7]: 99.4%; kill rate k[0-28] (SE), spleens ([8]; 50 mg/kg QD): 0.048 (0.006) log10CFU per day; kill rate k[0-56] (SE), spleens ([8]; 50 mg/kg QD): 0.026 (0.004) log10CFU per day; kill rate k[28-56] (SE), spleens ([8]; 50 mg/kg QD): 0.004 (0.007) log10CFU per day; kill rate k[0-28] (SE), spleens ([8]; 100 mg/kg QD): 0.046 (0.006) log10CFU per day; kill rate k[0-56] (SE), spleens ([8]; 100 mg/kg QD): 0.041 (0.003) log10CFU per day; kill rate k[28-56] (SE), spleens ([8]; 100 mg/kg QD): 0.036 (0.006) log10CFU per day; kill rate k[0-28] (SE), spleens ([8]; 200 mg/kg QD): 0.057 (0.005) log10CFU per day; kill rate k[0-56] (SE), spleens ([8]; 200 mg/kg QD): 0.046 (0.003) log10CFU per day; kill rate k[28-56] (SE), spleens ([8]; 200 mg/kg QD): 0.034 (0.006) log10CFU per day; mice with spleen CFU below the lower limit of detection ([8]; 200 mg/kg, 8 weeks, limit 1.7 log10 CFU/spleen): 4 out of 8; effect on spleen bacterial load ([8]; 4 weeks of treatment, all dose groups, Dunnett's P = 0.003 to 0.0001): statistically significant reductions; effect on spleen burdens ([8]; 8 weeks of treatment, Dunnett's P < 0.0001): statistically significant reductions; lung CFU reduction from the start of treatment [9, 17]: ~ 1.04 log10 CFU; lung CFU reduction versus untreated [9, 17]: ~ 2.43 log10 CFU; kill rate k[0-28] (SE), lungs, Type I (TI) subset ([9]; 50 mg/kg QD): 0.011 (0.010) log10CFU per day; kill rate k[0-56] (SE), lungs, Type I (TI) subset ([9]; 50 mg/kg QD): 0.023 (0.008) log10CFU per day; kill rate k[28-56] (SE), lungs, Type I (TI) subset ([9]; 50 mg/kg QD): 0.032 (0.015) log10CFU per day; kill rate k[0-28] (SE), lungs, Type III (TIII) subset ([9]; 50 mg/kg QD): 0.063 (0.007) log10CFU per day; kill rate k[0-56] (SE), lungs, Type III (TIII) subset ([9]; 50 mg/kg QD): 0.039 (0.007) log10CFU per day; kill rate k[28-56] (SE), lungs, Type III (TIII) subset ([9]; 50 mg/kg QD): 0.005 (0.010) log10CFU per day; kill rate k[0-28] (SE), lungs ([9]; 50 mg/kg QD): 0.022 log10CFU per day and 0.022 (0.018) log10CFU per day; kill rate k[0-56] (SE), lungs ([9]; 50 mg/kg QD): 0.019 (0.009) log10CFU per day; kill rate k[28-56] (SE), lungs ([9]; 50 mg/kg QD): 0.015 log10CFU per day and 0.015 (0.021) log10CFU per day; kill rate k[0-28] (SE), lungs, Type I (TI) subset ([9]; 100 mg/kg QD): 0.011 (0.011) log10CFU per day; kill rate k[0-56] (SE), lungs, Type I (TI) subset ([9]; 100 mg/kg QD): 0.047 (0.011) log10CFU per day; kill rate k[28-56] (SE), lungs, Type I (TI) subset ([9]; 100 mg/kg QD): 0.078 (0.017) log10CFU per day; kill rate k[0-28] (SE), lungs, Type III (TIII) subset ([9]; 100 mg/kg QD): 0.041 (0.007) log10CFU per day; kill rate k[0-56] (SE), lungs, Type III (TIII) subset ([9]; 100 mg/kg QD): 0.022 (0.005) log10CFU per day; kill rate k[28-56] (SE), lungs, Type III (TIII) subset ([9]; 100 mg/kg QD): 0.003 (0.015) log10CFU per day; kill rate k[0-28] (SE), lungs ([9]; 100 mg/kg QD): 0.006 log10CFU per day and 0.006 (0.013) log10CFU per day; kill rate k[0-56] (SE), lungs ([9]; 100 mg/kg QD): 0.031 (0.007) log10CFU per day; kill rate k[28-56] (SE), lungs ([9]; 100 mg/kg QD): 0.056 log10CFU per day and 0.056 (0.015) log10CFU per day; lung CFU reduction from the start of treatment [9, 18]: ~ 2.59 log10 CFU; lung CFU reduction versus untreated [9, 18]: ~ 3.98 log10 CFU; kill rate k[0-28] (SE), lungs, Type I (TI) subset ([9]; 200 mg/kg QD): 0.023 (0.011) log10CFU per day; kill rate k[0-56] (SE), lungs, Type I (TI) subset ([9]; 200 mg/kg QD): 0.042 (0.009) log10CFU per day; kill rate k[28-56] (SE), lungs, Type I (TI) subset ([9]; 200 mg/kg QD): 0.062 (0.014) log10CFU per day; kill rate k[0-28] (SE), lungs, Type III (TIII) subset ([9]; 200 mg/kg QD): 0.019 (0.009) log10CFU per day; kill rate k[0-56] (SE), lungs, Type III (TIII) subset ([9]; 200 mg/kg QD): 0.049 (0.005) log10CFU per day; kill rate k[28-56] (SE), lungs, Type III (TIII) subset ([9]; 200 mg/kg QD): 0.079 (0.015) log10CFU per day; kill rate k[0-28] (SE), lungs ([9]; 200 mg/kg QD): 0.005 log10CFU per day and 0.005 (0.010) log10CFU per day; kill rate k[0-56] (SE), lungs ([9]; 200 mg/kg QD): 0.046 (0.008) log10CFU per day; kill rate k[28-56] (SE), lungs ([9]; 200 mg/kg QD): 0.087 log10CFU per day and 0.087 (0.013) log10CFU per day; effect on lung bacterial load ([9]; 4 weeks of treatment, all dose groups (50, 100, 200 mg/kg), Dunnett's P = 0.002 to 0.03): statistically significant reductions; effect on lung bacterial load ([9]; 8 weeks of treatment, all dose groups, Dunnett's P < 0.0001): statistically significant reduction; drug levels in plasma, lung parenchyma, cellular lesion and cellular-caseum interface relative to serum-shifted MIC ([10]; 2.5 weeks, end of the dosing interval (24 h)): fell below the serum-shifted MIC; drug level in cellular-caseum interface over the serum-shifted MIC ([10]; 5 of 7 days per week for 2.5 weeks, Tmax (1 h)): 93 fold; kill kinetics (cidality) [11]: cidality; drug level in cellular lesion over the serum-shifted MIC [12]: 121 fold; drug level in lung parenchyma over the serum-shifted MIC [12]: 228 fold; drug level in plasma over the serum-shifted MIC [12]: 237 fold; percent lung involvement, Healthy Tissue (LIRA), average [13, 19]: 73.70%; percent lung involvement, Type I - Caseum (LIRA), average [13, 19]: 10% and 10.01%; percent lung involvement, Type I - Rim (LIRA), average [13, 19]: 4.85%; percent lung involvement, Type II (LIRA), average [13, 19]: 0%; percent lung involvement, Type III (LIRA), average [13, 19]: 11% and 11.44%; percent lung involvement, Healthy Tissue (LIRA), individual mice [13, 20]: 90.59% and 66.70% and 47.22% and 90.31%; percent lung involvement, Type I - Caseum (LIRA), individual mice [13, 20]: 2.82% and 6.51% and 30.69% and 0.00%; percent lung involvement, Type I - Rim (LIRA), individual mice [13, 20]: 3.75% and 4.76% and 10.89% and 0.00%; percent lung involvement, Type II (LIRA), individual mice [13, 20]: 0.00%; percent lung involvement, Type III (LIRA), individual mice [13, 20]: 2.83% and 22.03% and 11.21% and 9.69%; histology scores by board-certified pathologist ([13]; 200 mg/kg, 8 weeks of treatment, compared to untreated mice): improved overall histology scores; activity against non-replicating Mtb in rabbit caseum MBC assay [14]: lacked appreciable activity; protein binding indicated by serum-shift MIC assay ([1]; 4% huSA): ~ 75%; MIC ([1]; M. tuberculosis Erdman, 7H9 media): 0.008 µg/mL; MIC [1, 15]: 0.008 µg/mL; MIC [1, 16]: 0.03 µg/mL; sqMBC [2]: 0.016 µg/mL; sqMBC + huSA [2]: 0.03 µg/mL
